Like-named read-outs stand apart in the source and are kept apart here.
Tests used:
hCA I = details: stopped-flow CO2 hydrase assay, mean of three assays; cited from earlier work
hCA II = details: stopped-flow CO2 hydrase assay, mean of three assays; cited from earlier work
hCA IV [1] = details: stopped-flow CO2 hydrase assay, mean of three assays; cited from earlier work
hCA IX [2] = details: stopped-flow CO2 hydrase assay, mean of three assays; cited from earlier work
hCA XII = details: stopped-flow CO2 hydrase assay, mean of three assays; cited from earlier work
hCA IV [3] = assay: Stopped-flow CO2 hydrase inhibition assay, hCA IV; type: biochemical, human; details: ratio of KIs
Protocol: (§1) An Applied Photophysics stopped-flow instrument (Applied Photophysics Ltd, Leatherhead, UK) was used for assaying the CA-catalyzed CO2 hydration activity. Phenol red (at a concentration of 0.2 mM) was used as an indicator, working at the absorbance maximum of 557 nm, with 20 mM Hepes (pH 7.5) as a buffer and 20 mM Na2SO4 for maintaining constant the ionic strength, following the initial rates of the CA-catalyzed CO2 hydration reaction for a period of 10−100 s. The CO2 concentrations ranged from 1.7 to 17 mM for the determination of the kinetic parameters and inhibition constants. For each inhibitor, at least six traces of the initial 5−10% of the reaction were used for determining the initial velocity. The uncatalyzed rates were determined in the same manner and subtracted from the total observed rates. Stock solutions of inhibitor (0.1 mM) were prepared in distilled−deionized water and dilutions up to 0.01 nM were made thereafter with the assay buffer. Inhibitor and enzyme solutions were preincubated together for 15 min at room temperature before the assay to allow for the formation of the E−I complex. The inhibition constants were obtained by nonlinear least-squares methods using Prism 7 (GraphPad Software, La Jolla, CA, USA) and the Cheng−Prusoff equation and represent the mean of at least three different determinations. The enzyme concentrations were in the range of 3–11 nM. All hCA isoforms were recombinant ones obtained in-house.

hCA IX [4] = assay: Stopped-flow CO2 hydrase inhibition assay, hCA IX; type: biochemical, human; details: ratio of KIs
Protocol: as §1

MDA-MB-231 = assay: MTT antiproliferative assay, MDA-MB-231; type: cell-based; details: Homo sapiens, normoxic conditions, 72 h
Protocol: (§2) These cell lines were cultured as monolayers in Dulbecco’s Modified Eagle’s Medium (DMEM) supplemented with 10% FBS, 2 mM l-glutamine, 100 U/mL penicillin, and 100 µg/mL streptomycin sulfate. […] The cells were sub-cultured using trypsin/EDTA solution, counted with a hemocytometer, and plated on 96-well plates (5000 cells/well), allowing them to form a semi-confluent monolayer overnight. […] DMSO (100 µL/well) was then added to dissolve the formazan crystals with shaking for 10 min, after which the absorb absorbance was read at 590 nm against no-cell blanks using a FLuo Star Optima microplate reader (BMG technologies, Ortenberg, Germany). Cell proliferation was calculated by comparing the OD values of the DMSO control wells with those of the samples, represented as % proliferation relative to the control.

HCT-116 [5] = assay: MTT antiproliferative assay, HCT-116 (normoxia and CoCl2-induced hypoxia); type: cell-based, human; details: for IC50: Homo sapiens, MTT, 72 h
Protocol: as §2

A549 [6] = assay: MTT antiproliferative assay, A549; type: cell-based; details: Homo sapiens, normoxic conditions, 72 h
Protocol: The human triple-negative breast cancer cell line (MDA-MB-231), colon cancer cell line (HCT-116), and lung cancer cell line (A549) used in this study were obtained from the American Type Culture Collection (ATCC). These cell lines were cultured as monolayers in Dulbecco’s Modified Eagle’s Medium (DMEM) supplemented with 10% FBS, 2 mM l-glutamine, 100 U/mL penicillin, and 100 µg/mL streptomycin sulfate. […] The cells were sub-cultured using trypsin/EDTA solution, counted with a hemocytometer, and plated on 96-well plates (5000 cells/well), allowing them to form a semi-confluent monolayer overnight. […]. DMSO (100 µL/well) was then added to dissolve the formazan crystals with shaking for 10 min, after which the absorb absorbance was read at 590 nm against no-cell blanks using a FLuo Star Optima microplate reader (BMG technologies, Ortenberg, Germany). Cell proliferation was calculated by comparing the OD values of the DMSO control wells with those of the samples, represented as % proliferation relative to the control.

HCT-116 [7] = assay: Cell cycle analysis by DNA flow cytometry, HCT-116; type: cell-based, human; details: HCT-116, 24 h at IC50 concentration
Protocol: (§3) Following treatment, cells were washed twice with ice-cold phosphate-buffered saline (PBS). Subsequently, the treated cells were harvested through centrifugation, fixed in ice-cold 70% (v/v) ethanol, washed with PBS, re-suspended in 100 μg/mL RNase, stained with 40 μg/mL propidium iodide (PI), and subjected to flow cytometry analysis using FACS Calibur (Becton Dickinson, Franklin Lakes, NJ, USA). The cell cycle distributions were calculated using CellQuest software 5.1 (Becton Dickinson).

A549 [8] = assay: Cell cycle analysis by DNA flow cytometry, A549; type: cell-based, human; details: A549, 24 h at IC50 concentration
Protocol: as §3

HCT-116 [9] = assay: Annexin V-FITC/PI dual staining apoptosis assay, HCT-116; type: cell-based, human
Protocol: (§4) Phosphatidylserine externalization was evaluated using the Annexin V-FITC/PI apoptosis detection kit (BD Biosciences, USA), following the manufacturer’s guidelines. […] Subsequently, the cells were re-suspended in 100 μL of binding buffer with the addition of 1 μL of FITC-Annexin V, followed by a 30-min incubation at 4 °C. After rinsing in binding buffer, the cells were resuspended in 150 μL of binding buffer with the addition of 1 μL of DAPI (1 μg/μL in PBS). Flow cytometry analysis was performed using the BD FACS Canto II flow cytometer and the results were interpreted with FlowJo7.6.4 software (Tree Star, Ashland, USA).

A549 [10] = assay: Annexin V-FITC/PI dual staining apoptosis assay, A549; type: cell-based, human
Protocol: as §4

[11] = compound 150 µM, rat liver homogenate, 37 °C; cited from earlier work
[12] = HCT-116, treated at IC50 concentration
[13] = A549, treated at IC50 concentration

## COc1ccc(CN(CCc2ccc(S(N)(=O)=O)cc2)C(=O)c2ccc(-c3cssc3=S)cc2)cc1 [Compound 27]
hCA I
  Ki: 2220 nM
hCA II
  Ki: 589 nM
hCA IV [1]
  Ki: 1590 nM
hCA IX [2]
  Ki: 50.3 nM
hCA XII
  Ki: 76.4 nM

## COc1ccc(CN(CCc2ccc(S(N)(=O)=O)cc2)C(=O)c2ccc(-c3cssc3=S)cc2)cc1OC [Compound 28]
hCA I
  Ki: 890 nM
hCA II
  Ki: 218 nM
hCA IV [1]
  Ki: 293 nM
hCA IX [2]
  Ki: 18.6 nM
hCA XII
  Ki: 8.9 nM

## NS(=O)(=O)c1ccc(CCN(Cc2cccc3ccccc23)C(=O)c2ccc(-c3cssc3=S)cc2)cc1 [Compound 30]
hCA IV [3]
  hCA II/hCA IV selectivity ratio: 18.3
hCA IX [4]
  hCA II/hCA IX selectivity ratio: 286
MDA-MB-231
  IC50: 9590 ± 310 nM
HCT-116 [5]; HCT-116
  IC50 Normoxia / IC50 Hypoxia: 2.5
HCT-116 [5]; HCT-116, chemically induced hypoxia
  Increase in cytotoxicity under hypoxia compared to normoxia: 2 fold
HCT-116 [5]; HCT-116, hypoxic conditions
  Increase in activity concerning Staurosporine: 10 fold
HCT-116 [5]; HCT-116, normoxic conditions
  Increase in activity concerning Staurosporine: 5 fold
HCT-116 [5]; HCT-116, chemically induced hypoxia with CoCl2·6H2O, read-out: IC50 HCT-116 (Hypoxia)
  IC50: 930 ± 20 nM
HCT-116 [5]; HCT-116, normoxic conditions, read-out: IC50 HCT-116 (Normoxia)
  IC50: 2300 ± 140 nM
A549 [6]
  IC50: 1780 ± 40 nM
HCT-116 [7]
  %G0-G1: 28.22%
  %G2/M: 31.39%
  %S: 18.4%
  %Sub-G1: 21.99%
A549 [8]
  %G0-G1: 22.93%
  %G2/M: 34.96%
  %S: 20.77%
  %Sub-G1: 21.34%
HCT-116 [9]; HCT-116
  Fold increase in overall apoptosis compared to untreated control: 32.9 fold
HCT-116 [9]; [12]
  Early Apoptosis (Lower Right %): 10.23%
  Late Apoptosis (Upper Right %): 15.49%
  Total apoptosis: 25.72%
A549 [10]; A549
  Fold increase in overall apoptosis compared to untreated control: 19.9 fold
A549 [10]; [13]
  Early Apoptosis (Lower Right %): 5.36%
  Late Apoptosis (Upper Right %): 18.59%
  Total apoptosis: 23.95%
hCA I
  Ki: > 10000 nM
hCA II
  Ki: 4460 nM
hCA IV [1]
  Ki: 244 nM
hCA XII
  Ki: 7 nM
[11]
  H2S release half-life t/2: 5.0 min

## NS(=O)(=O)c1ccc(CCN(Cc2csc3ccccc23)C(=O)c2ccc(-c3cssc3=S)cc2)cc1 [Compound 31]
hCA I
  Ki: > 10000 nM
hCA II
  Ki: 2480 nM
hCA IX [2]
  Ki: 2.4 nM
hCA XII
  Ki: 8 nM

## NS(=O)(=O)c1ccc(CCN(CCc2ccccc2)C(=O)c2ccc(-c3cssc3=S)cc2)cc1 [Compound 32]
hCA I
  Ki: 4390 nM
hCA II
  Ki: 661 nM
hCA IV [1]
  Ki: 243 nM
hCA IX [2]
  Ki: 126 nM
hCA XII
  Ki: 9.6 nM

## N#CCCN(CCc1ccc(S(N)(=O)=O)cc1)C(=O)c1ccc(-c2cssc2=S)cc1 [Compound 33]
hCA I
  Ki: 429 nM
hCA II
  Ki: 60.4 nM
hCA IV [1]
  Ki: 523 nM
hCA IX [2]
  Ki: 28.7 nM
hCA XII
  Ki: 9.1 nM

## CN[C@@H]1C[C@H]2O[C@@](C)([C@@H]1OC)n1c3ccccc3c3c4c(c5c6ccccc6n2c5c31)C(=O)NC4 [Staurosporine, reference compound]
A549 [6]
  IC50: 5110 ± 190 nM

— article PMC11432087, “Hydrogen Sulfide-Releasing Carbonic Anhydrase Inhibitors Effectively Suppress Cancer Cell Growth” (International Journal of Molecular Sciences, 2024)
